For `COCOc1cc(OC)c(OC)cc1C#Cc1ccc(OC)c(OC)c1`, the melting point was 84 to 86 °C. `S=c1sc2ccccc2n1CNc1ccccc1` showed a melting point of 102 to 103 °C. In the case of `CC(C)(C)OC(=O)COc1ccccc1C=O`, the melting point is reported as 68.6 °C. In the case of `Cc1c(C(=O)Nc2ccc(N3CCC(N4CCOCC4)CC3)cc2C#N)cnn1-c1ccc(Cl)cc1`, the melting point is reported as 212 to 213 °C. `CCCCNS(=O)(=O)CC(=O)[C@@H]1OC(C)(C)N(C(=O)OC(C)(C)C)[C@H]1CC1CCCCC1` gave a melting point of 70 to 73 °C. With `NC(=O)c1cc(OCCNCC(O)c2ccccc2)ccc1O` (stereo not given) the melting point was 166 to 172 °C. `OC(c1ccc(Cl)cc1)c1ccc(-n2ccnc2)nc1` (stereo not given) showed a melting point of 147 to 149 °C. Work on `CC(CCC(=O)O)C1CCC2C3C(O)CC4CC(O[Si](C)(C)C(C)(C)C)CCC4(C)C3CC(O)C12C` (stereo not given) yielded a melting point of 146 °C. Work on `Cc1ccccc1Oc1cccc2c1OC(=O)C2N1C(=O)c2ccccc2C1=O` (stereo not given) yielded a melting point of 168 to 170 °C. Work on `CCOC(=O)COc1ccc(C(=O)Nc2ccccc2Sc2cccc(O)c2-c2nnn[nH]2)cc1` yielded a melting point of 155 to 157 °C. With `O=C(O)c1cn2c3c(c(N4CCNCC4)ccc3c1=O)CCC2` the melting point was 267 to 268 °C. In the case of `Cc1cc(-c2ccccc2)nc(-c2cccc([N+](=O)[O-])c2)c1C(=O)O`, the melting point is reported as 191 to 192 °C. Compound `OCc1ccc(-c2ccc(-c3cn([C@H]4CN5CCC4CC5)nn3)s2)cc1` has a melting point of 253 °C. Work on `COc1ccccc1Cc1nc2ccccc2c(=O)n1CCO` yielded a melting point of 154 to 155 °C. Work on `CC(C)(C#N)CNC(=O)c1nn(C2CCCCO2)cc1NC(=O)c1ccccn1` (stereo not given) yielded a melting point of 138 to 140 °C. For `NNC(=O)Cn1c(=S)sc2ccccc21`, the melting point was 214 to 215 °C. Work on `Cc1cc(F)ccc1-c1cscc1-c1ccc(S(C)(=O)=O)cc1` yielded a melting point of 158 to 160 °C. Work on `COP(=S)(OC)Oc1ncn(-c2ccccn2)n1` yielded a melting point of 88 to 91 °C. With `COc1ccc2c(c1)CCN1C(=O)C3=C(CC21)NCCC3` (stereo not given) the melting point was 202 to 205 °C. `C=CCOC1(C(F)(F)F)CN(C2CC2)C(=O)Nc2ccc(Cl)cc21` (stereo not given) showed a melting point of 120 to 121 °C. `Brc1ccc2c(c1)C1(c3ccccc3-c3ccccc31)c1cc(Br)ccc1-2` showed a melting point of 340 to 341 °C. For `CC(=O)n1nc(-c2c(C)cc(C)c([N+](=O)[O-])c2C)n2nc(C(C)(C)C)cc12`, the melting point was 169 to 171 °C. Compound `O=C(NCc1ccc(Cl)cc1)c1ccc2cnccc2n1` has a melting point of 110 to 111 °C. `CCCCCCc1cnc(-c2ccc(OC[C@H]3CC[C@H](CCCC)CC3)cc2)nc1` gave a melting point of 99 °C. Compound `Nc1nc(COc2ccc(Cl)cc2)nc2nccnc12` has a melting point of 246 to 248 °C. With `CC(C)S(=O)(=O)Nc1ccc([C@@H](C)C(=O)N[C@@H](C)C(N)=O)cc1` the melting point was 132 to 135 °C. `CCOC(=O)C(C)(C)S(=O)c1ccc2c(-c3ccc(Cl)cc3)noc2c1` (stereo not given) showed a melting point of 89 °C. In the case of `CC12CCC3c4cc(N)c(OCc5ccccc5)cc4CCC3C1CCC2=O` (stereo not given), the melting point is reported as 205 to 207 °C. With `CCOC(=O)c1c(-c2ccccc2C)c2cc(Cl)ccc2oc1=O` the melting point was 65 to 66 °C. Work on `COc1ccc(Sc2ccc3c(c2)CC[C@H]2NC(=O)CC[C@]32C)cc1` yielded a melting point of 194 to 196 °C. `O=C(C1=C(Nc2ccccc2)CCC1)c1ccccc1Br` gave a melting point of 106 to 108 °C. `Cc1nc(N)nc(N)c1-c1cc(Br)ccc1Cl` gave a melting point of 212 to 216 °C. With `Cc1cc(C(C)(C)C#N)cc(C(C)(C)C#N)c1` the melting point was 126 to 127 °C. Compound `CC(=Cc1ccc(-n2cnc3c2CCCC3)cc1)[N+](=O)[O-]` has a melting point of 147 to 149 °C. Work on `COc1cnccc1NC(=O)Nc1ccc(N2CCN(C(=O)Nc3ccc(OCCO)cc3C(F)(F)F)CC2)cc1` yielded a melting point of 142 to 143 °C. Work on `COc1cc(C=C(C#N)C(=O)Nc2ccccc2)cc(Cl)c1O` yielded a melting point of 273 °C. With `CCCCOC(=O)CN(C(=O)C(F)(F)F)C(NC(C)C)P(=O)(O)OSCC` (stereo not given) the melting point was 64 to 65 °C. Work on `NNC(=O)c1cn(C2CCN(Cc3ccccc3)C2)nn1` (stereo not given) yielded a melting point of 123 °C. Work on `CC(C)(COc1ccc(Cl)cc1)C(=O)C(CC1CCCCC1)n1cncn1` (stereo not given) yielded a melting point of 58 to 60 °C. In the case of `CC(C)(C)C1=NN(c2ccc(C(=O)O)cc2)C(c2ccc(Cl)c(Cl)c2)C1` (stereo not given), the melting point is reported as 217 °C. Work on `CN(c1cccc2cc(C3=NCC(CN4CCS(=O)(=O)CC4)S3)[nH]c12)S(=O)(=O)c1ccccn1` (stereo not given) yielded a melting point of 188 to 189 °C. `O=C(Nc1cccc(-n2ccnc2)c1)c1csc(-c2ccccc2)n1` showed a melting point of 131 to 134 °C. `O=C(N[C@H](Cc1cccc(OC(F)(F)C(F)F)c1)[C@@H](O)c1ccc(F)nc1)c1ccc(F)c2ccccc12` (racemic) gave a melting point of 148 to 149 °C. In the case of `Cc1ccnc(NC(c2ccc(C(F)(F)F)cc2)c2ccc3cccnc3c2O)n1` (stereo not given), the melting point is reported as 144 to 147 °C. Compound `COc1ccc(S(=O)(=O)N2CCC3(C=Cc4ccccc43)CC2)cc1` has a melting point of 181 to 183 °C. With `CCCCCCCCS(=O)(=O)ON=C(C#N)c1cccs1` the melting point was 77 to 82 °C. `COC(=O)CCSC(C)(C)C(NS(=O)(=O)c1ccc(Oc2ccc(F)cc2)cc1)C(=O)O` (stereo not given) showed a melting point of 123 to 124 °C. Compound `O=C1N(CC2COCCO2)c2ccccc2C12COc1cc3c(cc12)OCO3` (stereo not given) has a melting point of 147 to 149 °C. For `Cc1cc(SC#N)c(C(C)(C)C)cc1NC(=O)OC(C)(C)C`, the melting point was 100 to 111 °C. Work on `COc1ccc(-c2ncc3n2CNc2ccccc2-3)cc1` yielded a melting point of 190 to 191 °C.

Reference: a melting point compilation (Tetko et al.; mined from patent text by program, amines drawn as free bases though some values may be those of a salt)
